Values of other authors as cited in patent publication US20250352520A1, “USE OF DEXPRAMIPEXOLE FOR THE TREATMENT OF EOSINOPHILIC COPD” (Areteia Therapeutics, Inc., priority 2024, published 2025).
Read-outs that look alike come from different tables or passages of the source.

B1: mepolizumab: a humanized monoclonal antibody against interleukin-5 (antibody, chains of the INN, looked up, V domains shown)
VH: QVTLRESGPALVKPTQTLTLTCTVSGFSLTSYSVHWVRQPPGKGLEWLGVIWASGGTDYNSALMSRLSISKDTSRNQVVLTMTNMDPVDTATYYCARDPPSSLLRLDYWGRGTPVTVSS
VL: DIVMTQSPDSLAVSLGERATINCKSSQSLLNSGNQKNYLAWYQQKPGQPPKLLIYGASTRESGVPDRFSGSGSGTDFTLTISSLQAEDVAVYYCQNVHSFPFTFGGGTKLEIK

What was measured:
[1] = severe, uncontrolled, eosinophilic asthma; cited from earlier work
[2] = patients with COPD, cited from earlier work
[3] = cited from earlier work
[4] = COPD; cited from earlier work

| Molecule | eosinophils [1] | exacerbations [1] | lung function [1] | blood eosinophils ([2]; all doses, throughout the trial) | exacerbations [2] | asthma exacerbations [3] | biomarkers of asthma control [3] | blood eosinophil counts [4] | lung function and clinical outcomes [4] |
| --- | --- | --- | --- | --- | --- | --- | --- | --- | --- |
| benralizumab: an anti-interleukin-5 receptor monoclonal antibody | effectively depleted eosinophils | decreased exacerbations | improved lung function | substantial depletion of blood eosinophils | failed to show statistically significant reduction of exacerbations | – | – | – | – |
| B1 | – | – | – | – | – | significantly reduced asthma exacerbations | associated with improvements in biomarkers of asthma control, including eosinophil counts | effectively reduced blood eosinophil counts | not associated with consistent improvements in lung function and clinical outcomes |
